In US20050215490A1, “Polyene polyketides and methods of treating bacterial infections” (Ecopia BioSciences, Inc., priority 2003, published 2005):

Legend:
SRBC = assay: in vitro; format: cell-based; conditions: at a concentration of 128 μg/ml
Procedure: (§1) A. Toxicity: Acute toxicities were determined using CD-1 female mice (supplied by Charles River Laboratories, Wilmington, Mass.) having a bodyweight of 18-25 g, and about 6 weeks of age. Compounds 1 and 2 at doses ranging from 1 to 70 mg/kg (formulated in 20% propylene glycol/water for a total volume of 10 μL/g of weight) were administered intraperitoneal (i.p.) and intravenous (i.v.) to groups of 5 mice (5 mice per concentration, per mode of administration). Two groups of 3 mice were injected with vehicle only. Mice were observed immediately after injection, within 4 hours and once a day for the subsequent days. Acute toxicity studies of Compound 1 in mice indicated no observable effect and high dose tolerability: 70 mg/kg intraperitoneal and 50 mg/kg intravenous (an MTD of 250 mg/kg was also determined by oral administration). […] In vitro Haemolytic activity results are also shown in Table 7, along with the in vivo toxicity and efficacy of Compound 1.

[1] = test system: Staphylococcus aureus (Smith strain, ATCC™ 13709); assay: In vivo efficacy, acute lethal S. aureus infection in mice; conditions: ICR mice; i.p. one hour post infection; lowest dose tested; 100% protection
Procedure: B. Efficacy: In vivo efficacy studies were performed on ICR mice (supplied by Charles River Laboratories, Wilmington, Mass.) having a bodyweight of 20±2 g. Mice (38) were inoculated i.p. with an LD90-100 dose (1×10^6 CFU/mouse) of Staphylococcus aureus (Smith strain, ATCC™ 13709) suspended in 0.5 mL of BHI containing 5% mucin. Compound 1 at doses 20, 30, 40, 50, 60 and 70 mg/kg (formulated in 20% propylene glycol/water for a total volume of 10 μL/g of weigth) was administered i.p. one hour post infection (5 mice for each concentration). Another group of 5 mice was treated i.v. with a 10 mg/kg dose of Vancomycin. A last group of 3 mice was administered vehicle only. Mortality was recorded for 7 days.

in vivo = conditions: female, CD-1, mouse
Procedure: as §1

With `C\C(=C/C=C/C=C/C=C/C=C/C(C)C(OC1OC(C(=O)O)C(O)C(O)C1O)/C(C)=C/C(C)CCC/C=C/C(C)C/C=C/CCCNC(=N)N)C(=O)NC1=C(O)CCC1=O` (stereo not shown) [Compound 2, 6-{16-guanidino-1-[11-(2-hydroxy-5-oxocyclopent-1-enylcarbamoyl)-1-methyldodeca-2,4,6,8,10-pentaenyl]-2,4,10-trimethylhexadeca-2,8,12-trienyloxy}-3,4,5-trihydroxy-tetrahydro-pyran-2-carboxylic acid] the Haemolytic activity (SRBC) was “No Haemolytic activity”.

In the case of `CC(=CC=CC=CC=CC=CC(C)C(OC1OC(C(=O)O)C(O)C(O)C1O)C(C)=CC(C)CCCC=CC(C)CC=CCCCN(C)C(=N)N)C(=O)NC1=C(O)CCC1=O` (stereo not shown) [Compound 1, 3,4,5-trihydroxy-6-[1-[11-(2-hydroxy-5-oxocyclopent-1-enylcarbamoyl)-1-methyldodeca-2,4,6,8,10-pentaenyl]-2,4,10-trimethyl-16-(N-methyl-guanidino)-hexadeca-2,8,12-trienyloxy]-tetrahydropyran-2-carboxylic acid], the “In vivo efficacy: S. aureus (Smith), protective dose” value [1] is reported as “≦20 mg/kg”, the MTD (in vivo; ip) is reported as 70 mg/kg and the MTD (in vivo; po) is reported as 250 mg/kg.
